Results on 2 molecules are retold here after ChEMBL document CHEMBL4622979, “Non-rigid Diarylmethyl Analogs of Baloxavir as Cap-Dependent Endonuclease Inhibitors of Influenza Viruses” (J Med Chem, 2020).

As usually defined, the Cmax is the peak of the concentration-time curve.

Molecules are shown by their SMILES.

Data set [1] is described as follows: Ratio of AUClast in CD1 mouse lung to plasma assessed as (12aR)-12-[(S)-(3,4-Difluorophenyl)(phenyl)methyl]-7-hydroxy3,4,12,12a-tetrahydro-1H-[1,4]oxazino[3,4-c]pyrido[2,1-f ][1,2,4]triazine-6,8-dione level at 15 mg/kg, po administered as single dose by LC-MS/MS analysis. As to conditions: other tissue. In kind it is ADME, organism-based.
Data set [2] in a line: AUClast in CD1 mouse lung assessed as (12aR)-12-[(S)-(3,4-Difluorophenyl)(phenyl)methyl]-7-hydroxy3,4,12,12a-tetrahydro-1H-[1,4]oxazino[3,4-c]pyrido[2,1-f ][1,2,4]triazine-6,8-dione level at 15 mg/kg, po administered as single dose by LC-MS/MS analysis. As to conditions: in vivo. In kind it is ADME, organism-based.
Data set [3] is described as follows: Stability in simulated gastric fluid assessed as parent compound remaining at 1 uM measured after 4 hrs at pH 1.2 by LC-MS/MS analysis. In kind it is physicochemical. The note with it: read-out: Stability.
A short description of data set [4]: Stability in simulated intestinal fluid assessed as parent compound remaining at 1 uM measured after 4 hrs at pH 1.2 by LC-MS/MS analysis. In kind it is physicochemical. As to conditions: read-out: Stability.
The nature of data set [5]: Cmax in CD1 mouse lung assessed as (12aR)-12-[(S)-(3,4-Difluorophenyl)(phenyl)methyl]-7-hydroxy3,4,12,12a-tetrahydro-1H-[1,4]oxazino[3,4-c]pyrido[2,1-f ][1,2,4]triazine-6,8-dione level at 15 mg/kg, po administered as single dose by LC-MS/MS analysis. As to conditions: in vivo. The class given is ADME, organism-based. Also on record: dose 15 mg/kg, route oral.
The nature of data set [6]: AUClast in CD1 mouse plasma assessed as (12aR)-12-[(S)-(3,4-Difluorophenyl)(phenyl)methyl]-7-hydroxy3,4,12,12a-tetrahydro-1H-[1,4]oxazino[3,4-c]pyrido[2,1-f ][1,2,4]triazine-6,8-dione level at 15 mg/kg, po administered as single dose by LC-MS/MS analysis. The class given is ADME, organism-based. The arrangement: dose 15 mg/kg, route oral, time 0 - last. As to conditions: in vivo.

A short description of data set [7]: Ratio of Cmax in CD1 mouse lung to plasma assessed as (12aR)-12-[(S)-(3,4-Difluorophenyl)(phenyl)methyl]-7-hydroxy3,4,12,12a-tetrahydro-1H-[1,4]oxazino[3,4-c]pyrido[2,1-f ][1,2,4]triazine-6,8-dione level at 15 mg/kg, po administered as single dose by LC-MS/MS analysis. The class given is ADME, organism-based. The note with it: other tissue.
A short description of data set [8]: Oral bioavailability in CD1 mouse assessed as (12aR)-12-[(S)-(3,4-Difluorophenyl)(phenyl)methyl]-7-hydroxy3,4,12,12a-tetrahydro-1H-[1,4]oxazino[3,4-c]pyrido[2,1-f ][1,2,4]triazine-6,8-dione level at 15 mg/kg administered as single dose by LC-MS/MS analysis. In kind it is ADME, organism-based. As to conditions: in vivo.
A short description of data set [9]: Cmax in CD1 mouse plasma assessed as (12aR)-12-[(S)-(3,4-Difluorophenyl)(phenyl)methyl]-7-hydroxy3,4,12,12a-tetrahydro-1H-[1,4]oxazino[3,4-c]pyrido[2,1-f ][1,2,4]triazine-6,8-dione level at 15 mg/kg, po administered as single dose by LC-MS/MS analysis. In kind it is ADME, organism-based. The arrangement: dose 15 mg/kg, route oral. The note with it: in vivo.
The nature of data set [10]: AUClast in CD1 mouse plasma assessed as (12aR)-12-[(R)-(3,4-Difluorophenyl)(phenyl)methyl]-7-hydroxy3,4,12,12a-tetrahydro-1H-[1,4]oxazino[3,4-c]pyrido[2,1-f ][1,2,4]-triazine-6,8-dione level at 15 mg/kg, po administered as single dose by LC-MS/MS analysis. The class given is ADME, organism-based. Also on record: dose 15 mg/kg, route oral, time 0 - last. The note with it: in vivo.

Data set [11] can be described thus: Ratio of Cmax in CD1 mouse lung to plasma assessed as (12aR)-12-[(R)-(3,4-Difluorophenyl)(phenyl)methyl]-7-hydroxy3,4,12,12a-tetrahydro-1H-[1,4]oxazino[3,4-c]pyrido[2,1-f ][1,2,4]-triazine-6,8-dione level at 15 mg/kg, po administered as single dose by LC-MS/MS analysis. In kind it is ADME, organism-based. As to conditions: other tissue.
The nature of data set [12]: AUClast in CD1 mouse lung assessed as (12aR)-12-[(R)-(3,4-Difluorophenyl)(phenyl)methyl]-7-hydroxy3,4,12,12a-tetrahydro-1H-[1,4]oxazino[3,4-c]pyrido[2,1-f ][1,2,4]-triazine-6,8-dione level at 15 mg/kg, po administered as single dose by LC-MS/MS analysis. The class given is ADME, organism-based. As to conditions: in vivo.
Data set [13] in a line: Oral bioavailability in CD1 mouse assessed as (12aR)-12-[(R)-(3,4-Difluorophenyl)(phenyl)methyl]-7-hydroxy3,4,12,12a-tetrahydro-1H-[1,4]oxazino[3,4-c]pyrido[2,1-f ][1,2,4]-triazine-6,8-dione level at 15 mg/kg administered as single dose by LC-MS/MS analysis. The class given is ADME, organism-based. As to conditions: in vivo.
Data set [14] is described as follows: Cmax in CD1 mouse plasma assessed as (12aR)-12-[(R)-(3,4-Difluorophenyl)(phenyl)methyl]-7-hydroxy3,4,12,12a-tetrahydro-1H-[1,4]oxazino[3,4-c]pyrido[2,1-f ][1,2,4]-triazine-6,8-dione level at 15 mg/kg, po administered as single dose by LC-MS/MS analysis. In kind it is ADME, organism-based. Also on record: dose 15 mg/kg, route oral. The note with it: in vivo.

Data set [15] is described as follows: Cmax in CD1 mouse lung assessed as (12aR)-12-[(R)-(3,4-Difluorophenyl)(phenyl)methyl]-7-hydroxy3,4,12,12a-tetrahydro-1H-[1,4]oxazino[3,4-c]pyrido[2,1-f ][1,2,4]-triazine-6,8-dione level at 15 mg/kg, po administered as single dose by LC-MS/MS analysis. In kind it is ADME, organism-based. Also on record: dose 15 mg/kg, route oral. The note with it: in vivo.
The nature of data set [16]: Ratio of AUClast in CD1 mouse lung to plasma assessed as (12aR)-12-[(R)-(3,4-Difluorophenyl)(phenyl)methyl]-7-hydroxy3,4,12,12a-tetrahydro-1H-[1,4]oxazino[3,4-c]pyrido[2,1-f ][1,2,4]-triazine-6,8-dione level at 15 mg/kg, po administered as single dose by LC-MS/MS analysis. The note with it: other tissue. The class given is ADME, organism-based.

With `COC(=O)OCOc1c2n(ccc1=O)N([C@@H](c1ccccc1)c1ccc(F)c(F)c1)[C@@H]1COCCN1C2=O`, in [1], the “Ratio AUC” value is 4.2. For the same molecule, the AUClast in data set [2] came to 8806 ng·h/g; in [6] it was 2078 ng·h/mL. For the same molecule, the remaining at 4 h, 1 µM in data set [3] is 97.7%; in data set [4], 95.8%. The Cmax in data set [5] worked out at 1476 ng/g; in data set [9], 397 ng/mL. Moreover, the Ratio in data set [7] is 3.7. Also, the F in data set [8] is 29.9%.

Take `COC(=O)OCOc1c2n(ccc1=O)N([C@H](c1ccccc1)c1ccc(F)c(F)c1)[C@@H]1COCCN1C2=O`: the AUClast was determined as 9448 ng·h/mL in data set [10] and 30130 ng·h/g in [12]. The Ratio in [11] was 2.1. Besides, the F in data set [13] came out at 56.9%. Moreover, the Cmax in data set [14] was found to be 2090 ng/mL; in [15], 4464 ng/g. Besides, the “Ratio AUC” value in data set [16] was determined as 3.2.
